Assays:
Assay in all cases: relative viability (nuclei count vs DMSO), 5 days (fraction); higher = more cells survive
[1] = compound: C1CNCCC1C2=CC(=NN2)C3=CC=NC=C3 + COc1cccc2cc(-c3nc([C@H]4CC[C@H](C(=O)O)CC4)n4ncnc(N)c34)[nH]c12 [OSI-027] (partner 0.5 µM)
Method in brief: (§1)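 Lung cancer cell lines in 1536-well plates got either a single drug or a fixed anchor-drug dose together with five library-drug doses (not always all listed) in √10 steps, by pin tool, on the day after seeding. Nuclei were counted after 5 days, and relative viability is the treated-to-vehicle ratio of nuclei counts. Values are medians of duplicate plates.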

[2] = compound: C1CNCCC1C2=CC(=NN2)C3=CC=NC=C3 + Nc1ncn([C@H]2C[C@H](O)[C@@H](CO)O2)c(=O)n1 [Decitabine] (partner 2 µM)
Method in brief: as §1

[3] = compound: C[C@@H](N)c1ccc(C(=O)Nc2ccnc3[nH]ccc23)cc1 + Nc1ncn([C@H]2C[C@H](O)[C@@H](CO)O2)c(=O)n1 [Decitabine] (partner 2 µM)
Method in brief: as §1

[4] = compound: O[C@H]1CC[C@H](Nc2ncc3nc(Nc4c(F)cc(F)cc4F)n([C@H]4CCOC4)c3n2)CC1 [Tanzisertib] + COc1cc2c(Oc3ccc(NC(=O)C4(C(=O)Nc5ccc(F)cc5)CC4)cc3F)ccnc2cc1OCCCN1CCOCC1 [Foretinib] (partner 0.25 µM)
Method in brief: as §1

Cell Line | relative viability ([1]; first compound 0.08 µM) | relative viability ([1]; first compound 0.8 µM) | relative viability ([1]; first compound 2.53 µM) | relative viability ([1]; first compound 8 µM) | relative viability ([2]; first compound 0.08 µM) | relative viability ([2]; first compound 0.8 µM) | relative viability ([2]; first compound 2.53 µM) | relative viability ([2]; first compound 8 µM) | relative viability ([3]; first compound 0.1265 µM) | relative viability ([3]; first compound 0.4 µM) | relative viability ([3]; first compound 4 µM) | relative viability ([4]; first compound 0.08 µM) | relative viability ([4]; first compound 0.253 µM) | relative viability ([4]; first compound 0.8 µM) | relative viability ([4]; first compound 2.53 µM) | relative viability ([4]; first compound 8 µM) | relative viability ([3]; first compound 0.04 µM) | relative viability ([3]; first compound 1.265 µM)
NCI-H1915 | 0.643 | 0.641 | 0.623 | 0.646 | 0.267 | 0.249 | 0.26 | 0.263 | 0.265 | 0.242 | 0.235 | 1.12 | 1.1 | 1.11 | 1.11 | 1.16 | – | –
NCI-H1944 | 0.41 | 0.413 | 0.546 | 0.423 | 0.426 | 0.431 | 0.414 | 0.415 | 0.425 | 0.458 | 0.404 | 0.957 | 0.936 | 0.855 | 0.928 | 0.822 | 0.524 | 0.495
NCI-H1975 | 0.703 | 0.778 | 0.774 | 0.777 | 0.369 | 0.355 | 0.399 | 0.363 | 0.381 | 0.426 | 0.28 | 0.968 | 0.968 | 1.03 | 0.946 | 0.841 | 0.365 | 0.356
NCI-H1993 | 0.581 | 0.533 | 0.529 | 0.578 | 0.573 | 0.576 | 0.473 | 0.7 | 0.603 | – | 0.69 | 0.823 | 0.841 | 0.844 | 0.786 | 0.73 | 0.649 | 0.636
NCI-H2009 | 0.761 | 0.699 | 0.749 | 0.725 | 0.374 | 0.4 | 0.343 | 0.37 | 0.391 | 0.355 | 0.351 | 1.21 | 1.19 | 1.24 | 1.27 | 1.03 | 0.318 | 0.346
NCI-H2023 | 0.347 | 0.48 | 0.457 | 0.503 | 0.219 | 0.222 | 0.251 | 0.194 | 0.243 | 0.245 | 0.159 | 0.853 | 0.874 | 0.936 | 0.901 | 0.646 | 0.252 | 0.222
NCI-H2085 | 0.818 | 0.515 | 0.682 | 0.935 | 0.526 | – | 0.578 | 0.531 | 0.573 | 0.742 | 0.521 | 0.893 | 1.11 | 1.14 | 1.03 | 1.05 | 0.528 | 0.561
NCI-H2087 | 0.471 | 0.616 | 0.619 | 0.573 | 0.339 | 0.279 | 0.267 | 0.292 | 0.325 | 0.357 | 0.31 | 1.23 | 0.992 | 1.12 | 1.06 | 1.09 | 0.293 | 0.362
NCI-H2126 | 0.724 | 0.591 | 0.725 | 0.698 | 0.613 | 0.654 | 0.667 | 0.578 | 0.583 | 0.596 | 0.572 | 1.24 | 1.21 | 1.15 | 1.19 | 1.12 | 0.56 | 0.599
NCI-H2170 | 0.611 | 0.697 | 0.776 | 0.686 | 0.442 | 0.446 | 0.487 | 0.529 | 0.467 | 0.489 | 0.429 | 1.02 | 1.01 | 0.954 | 1.06 | 0.984 | 0.497 | 0.517

— the supplement of paper PMC10307832
